Columns and labels:
[1] = tested on: MV-4-11 human acute myeloid leukemia; assay: MV-4-11 CCK-8 proliferation assay; format: cell-based; details: Homo sapiens, MV4-11; MV-4-11 cells, 72 hr
Protocol: (§1) The following cancer cell lines were employed: A549 human lung carcinoma (ATCC, #CCL-185); BT-474 human breast carcinoma (ATCC, #HTB-20); MDA-MB-231 human breast adenocarcinoma (ATCC, #CRM−HTB-26); MDA-MB-468 human breast adenocarcinoma (ATCC, #HTB-132); MV-4-11 human acute myeloid leukemia (ATCC, #CRL-9591); and U-87 MG human glioblastoma (ATCC, #HTB-14). Cell lines were cultured essentially according to ATCC recommendations.
(§2) 3-fold serial dilutions of each test compound were prepared ranging from 20 μM to 1.02 nM.
(§3) % Inhibition=100−(D−B)/(S−B)*100%. • S: Absorbance of cells treated with DMSO • D: Absorbance of compound-treated cells • B: Absorbance of medium with DMSO without cells

[2] = tested on: U-87 MG human glioblastoma; assay: U87 MG CCK-8 proliferation assay; format: cell-based; details: Homo sapiens, U-87 MG, 72 h, U-87 MG cells, read-out: U87MG CCK-8
Protocol: as §1, §2, §3

| SMILES | EC50 [1] | EC50 [2] |
| --- | --- | --- |
| CCOc1cc(N2CCC(C(=O)N3CCC(Oc4ccc(-c5ccc(NC(=O)c6ccc(OC)c(-c7cccc(OC)c7)c6)cc5)cc4)CC3)CC2)ccc1Nc1ncc2c(n1)N(S(C)(=O)=O)c1ccccc1C(=O)N2C [Compound 144, N-(4′-((1-(1-(3-ethoxy-4-((5-methyl-11-(methylsulfonyl)-6-oxo-6,11-dihydro-5H-benzo[e]pyrimido[5,4-b][1,4]diazepin-2-yl)amino)phenyl)piperidine-4-carbonyl)piperidin-4-yl)oxy)-[1,1′-biphenyl]-4-yl)-3′,6-dimethoxy-[1,1′-biphenyl]-3-carboxamide] | > 1000 nM | > 1000 nM |
| CCOc1cc(N2CCC(C(=O)N3CCC(COc4ccc(-c5ccc(NC(=O)c6ccc(OC)c(-c7cccc(OC)c7)c6)cc5)cc4)CC3)CC2)ccc1Nc1ncc2c(n1)N(C)c1ccccc1C(=O)N2C [Compound 145, N-(4′-((1-(1-(4-((5,11-dimethyl-6-oxo-6,11-dihydro-5H-benzo[e]pyrimido[5,4-b][1,4]diazepin-2-yl)amino)-3-ethoxyphenyl)piperidine-4-carbonyl)piperidin-4-yl)methoxy)-[1,1′-biphenyl]-4-yl)-3′,6-dimethoxy-[1,1′-biphenyl]-3-carboxamide] | > 1000 nM | > 1000 nM |
| CCOc1cc(N2CCC(C(=O)N3CCC(COc4ccc(-c5ccc(NC(=O)c6ccc(OC)c(-c7cccc(OC)c7)c6)cc5)cc4)CC3)CC2)ccc1Nc1ncc2c(n1)N(S(C)(=O)=O)c1ccccc1C(=O)N2C [Compound 146, N-(4′-((1-(1-(3-ethoxy-4-((5-methyl-11-(methylsulfonyl)-6-oxo-6,11-dihydro-5H-benzo[e]pyrimido[5,4-b][1,4]diazepin-2-yl)amino)phenyl)piperidine-4-carbonyl)piperidin-4-yl)methoxy)-[1,1′-biphenyl]-4-yl)-3′,6-dimethoxy-[1,1′-biphenyl]-3-carboxamide] | > 1000 nM | > 1000 nM |
| CCOc1cc(N2CCC(C(=O)NCCCOc3ccc(-c4ccc(NC(=O)c5ccc(OC)c(-c6cccc(OC)c6)c5)cc4)cc3)CC2)ccc1Nc1ncc2c(n1)N(C)c1ccccc1C(=O)N2C [Compound 147, N-(3-((4′-(3′,6-dimethoxy-[1,1′-biphenyl]-3-carboxamido)-[1,1′-biphenyl]-4-yl)oxy)propyl)-1-(4-((5,11-dimethyl-6-oxo-6,11-dihydro-5H-benzo[e]pyrimido[5,4-b][1,4]diazepin-2-yl)amino)-3-ethoxyphenyl)piperidine-4-carboxamide] | > 1000 nM | > 1000 nM |
| CCOc1cc(N2CCC(C(=O)NCCCOc3ccc(-c4ccc(NC(=O)c5ccc(OC)c(-c6cccc(OC)c6)c5)cc4)cc3)CC2)ccc1Nc1ncc2c(n1)N(S(C)(=O)=O)c1ccccc1C(=O)N2C [Compound 148, N-(3-((4′-(3′,6-dimethoxy-[1,1′-biphenyl]-3-carboxamido)-[1,1′-biphenyl]-4-yl)oxy)propyl)-1-(3-ethoxy-4-((5-methyl-11-(methylsulfonyl)-6-oxo-6,11-dihydro-5H-benzo[e]pyrimido[5,4-b][1,4]diazepin-2-yl)amino)phenyl)piperidine-4-carboxamide] | > 1000 nM | > 1000 nM |
| CCOc1cc(N2CCC(C(=O)NCCCOc3ccc(-c4ccc(NC(=O)c5ccc(OC)c(-c6cccc(OC)c6)c5)cc4)c(OCCCN(C)C)c3)CC2)ccc1Nc1ncc2c(n1)N(C)c1ccccc1C(=O)N2C [Compound 152, N-(3-((4′-(3′,6-dimethoxy-[1,1′-biphenyl]-3-carboxamido)-2-(3-(dimethylamino)propoxy)-[1,1′-biphenyl]-4-yl)oxy)propyl)-1-(4-((5,11-dimethyl-6-oxo-6,11-dihydro-5H-benzo[e]pyrimido[5,4-b][1,4]diazepin-2-yl)amino)-3-ethoxyphenyl)piperidine-4-carboxamide] | > 1000 nM | > 1000 nM |
| CCOc1cc(N2CCC(C(=O)N3CCC(CN4CCN(Cc5ccc(-n6c(C(=O)NC(C)C(F)(F)F)nnc6-c6cc(CC)c(O)cc6OC(=O)C(C)C)cc5)CC4)CC3)CC2)ccc1Nc1ncc2c(n1)N(S(C)(=O)=O)c1ccccc1C(=O)N2C (stereo not shown) [Compound 162, 2-(4-(4-((4-((1-(1-(3-ethoxy-4-((5-methyl-11-(methylsulfonyl)-6-oxo-6,11-dihydro-5H-benzo[e]pyrimido[5,4-b][1,4]diazepin-2-yl)amino)phenyl)piperidine-4-carbonyl)piperidin-4-yl)methyl)piperazin-1-yl)methyl)phenyl)-5-((1,1,1-trifluoropropan-2-yl)carbamoyl)-4H-1,2,4-triazol-3-yl)-4-ethyl-5-hydroxyphenyl isobutyrate] | 100 to 1000 nM | 100 to 1000 nM |
| CCOc1cc(N2CCC(C(=O)NCc3ccc(CN(CC)Cc4ccc(-n5c(O)nnc5-c5cc(C(C)C)c(O)cc5O)cc4)cc3)CC2)ccc1Nc1ncc2c(n1)N(S(C)(=O)=O)c1ccccc1C(=O)N2C [Compound 166, N-(4-(((4-(3-(2,4-dihydroxy-5-isopropylphenyl)-5-hydroxy-4H-1,2,4-triazol-4-yl)benzyl)(ethyl)amino)methyl)benzyl)-1-(3-ethoxy-4-((5-methyl-11-(methylsulfonyl)-6-oxo-6,11-dihydro-5H-benzo[e]pyrimido[5,4-b][1,4]diazepin-2-yl)amino)phenyl)piperidine-4-carboxamide] | < 100 nM | 100 to 1000 nM |

Now from value to molecule:

| EC50 [1] | EC50 [2] | SMILES |
| --- | --- | --- |
| < 100 nM | < 100 nM | CCOc1cc(N2CCC(C(=O)N3CCN(Cc4ccc(-n5c(O)nnc5-c5cc(C(C)C)c(O)cc5O)cc4)CC3)CC2)ccc1Nc1ncc2c(n1)N(S(C)(=O)=O)c1ccccc1C(=O)N2C [Compound 159, 2-((4-(4-(4-(4-(3-(2,4-dihydroxy-5-isopropylphenyl)-5-hydroxy-4H-1,2,4-triazol-4-yl)benzyl)piperazine-1-carbonyl)piperidin-1-yl)-2-ethoxyphenyl)amino)-5-methyl-11-(methylsulfonyl)-5,11-dihydro-6H-benzo[e]pyrimido[5,4-b][1,4]diazepin-6-one] |
| < 100 nM | 100 to 1000 nM | CCOc1cc(N2CCC(C(=O)N3CCN(Cc4ccc(-n5c(O)nnc5-c5cc(C(C)C)c(O)cc5O)cc4)CC3)CC2)ccc1N(CC)c1ncc2c(n1)N(S(C)(=O)=O)c1ccccc1C(=O)N2C [Compound 160, 2-((4-(4-(4-(4-(3-(2,4-dihydroxy-5-isopropylphenyl)-5-hydroxy-4H-1,2,4-triazol-4-yl)benzyl)piperazine-1-carbonyl)piperidin-1-yl)-2-ethoxyphenyl)(ethyl)amino)-5-methyl-11-(methylsulfonyl)-5,11-dihydro-6H-benzo[e]pyrimido[5,4-b][1,4]diazepin-6-one] |
| < 100 nM | 100 to 1000 nM | CCOc1cc(N2CCC(C(=O)N3CCC(CN4CCN(Cc5ccc(-n6c(C(=O)NC(C)C(F)(F)F)nnc6-c6cc(CC)c(OC(=O)C(C)C)cc6O)cc5)CC4)CC3)CC2)ccc1Nc1ncc2c(n1)N(S(C)(=O)=O)c1ccccc1C(=O)N2C (stereo not shown) [Compound 161, 4-(4-(4-((4-((1-(1-(3-ethoxy-4-((5-methyl-11-(methylsulfonyl)-6-oxo-6,11-dihydro-5H-benzo[e]pyrimido[5,4-b][1,4]diazepin-2-yl)amino)phenyl)piperidine-4-carbonyl)piperidin-4-yl)methyl)piperazin-1-yl)methyl)phenyl)-5-((1,1,1-trifluoropropan-2-yl)carbamoyl)-4H-1,2,4-triazol-3-yl)-2-ethyl-5-hydroxyphenyl isobutyrate] |
| < 100 nM | < 100 nM | CCOc1cc(N2CCC(C(=O)N3CCN(Cc4ccc(-n5c(C(=O)NCCN(CC)CC)nnc5-c5cc(C(C)C)c(O)cc5O)cc4)CC3)CC2)ccc1Nc1ncc2c(n1)N(C)c1ccccc1C(=O)N2C [Compound 163, N-(2-(diethylamino)ethyl)-5-(2,4-dihydroxy-5-isopropylphenyl)-4-(4-((4-(1-(4-((5,11-dimethyl-6-oxo-6,11-dihydro-5H-benzo[e]pyrimido[5,4-b][1,4]diazepin-2-yl)amino)-3-ethoxyphenyl)piperidine-4-carbonyl)piperazin-1-yl)methyl)phenyl)-4H-1,2,4-triazole-3-carboxamide] |
| < 100 nM | < 100 nM | CCOc1cc(N2CCC(C(=O)N3CCN(Cc4ccc(-n5c(C(=O)NCCN(CC)CC)nnc5-c5cc(C(C)C)c(O)cc5O)cc4)CC3)CC2)ccc1Nc1ncc2c(n1)N(S(C)(=O)=O)c1ccccc1C(=O)N2C [Compound 164, N-(2-(diethylamino)ethyl)-5-(2,4-dihydroxy-5-isopropylphenyl)-4-(4-((4-(1-(3-ethoxy-4-((5-methyl-11-(methylsulfonyl)-6-oxo-6,11-dihydro-5H-benzo[e]pyrimido[5,4-b][1,4]diazepin-2-yl)amino)phenyl)piperidine-4-carbonyl)piperazin-1-yl)methyl)phenyl)-4H-1,2,4-triazole-3-carboxamide] |
| < 100 nM | 100 to 1000 nM | CCOc1cc(N2CCC(C(=O)NCc3ccc(CN(CC)Cc4ccc(-n5c(O)nnc5-c5cc(C(C)C)c(O)cc5O)cc4)cc3)CC2)ccc1Nc1ncc2c(n1)N(C)c1ccccc1C(=O)N2C [Compound 165, N-(4-(((4-(3-(2,4-dihydroxy-5-isopropylphenyl)-5-hydroxy-4H-1,2,4-triazol-4-yl)benzyl)(ethyl)amino)methyl)benzyl)-1-(4-((5,11-dimethyl-6-oxo-6,11-dihydro-5H-benzo[e]pyrimido[5,4-b][1,4]diazepin-2-yl)amino)-3-ethoxyphenyl)piperidine-4-carboxamide] |
